The values below come from patent publication US20090170945A1, “[…]” (priority 2007, published 2009).

Data set [1] in a line: Formation of impurities during salt formation (HPLC) and stability studies. The settings on record: for stability / impurities during salt formation: HPLC after the salt formation. On the procedure: Formation of impurities during the salt forming process was tested by analyzing the samples by HPLC after the salt formation. Salts were also subjected to stability studies in the solid state; particularly, they were subjected to storage at 40 C and 75% RH in the open dish.

Data set [2] can be described thus: Thermogravimetric measurements.
The conditions of data set [3]: cited from earlier work.
Data set [4] is described as follows: Solubility in organic solvents. It counts as physicochemical. From the text: Pregabalin is obtainable by known methods, such as those described in EPB 641 330. […].
Suitable solvents include aliphatic cyclic ethers (e.g. dioxane), esters, and ketones (each of the ethers, esters, and ketones having 3 to 12 carbon atoms), and mixtures thereof as well as mixtures with water. The solubility may be enhanced by heating the reaction mixture. The presence of water enhances the solubility of both reagents (i.e., the pregabalin and the corresponding acid) substantially. Due to the high water solubility of the salt, however, the amount of water in the solvent should be minimized prior to the isolation of the salt (e.g. by evaporation of the solvent prior to the isolation), and preferably water is excluded from the solvent entirely. On the other hand, it was shown that the pregabalin salts of the invention are only slightly soluble in aliphatic ethers (such as diisopropyl ether and methyl tert. butyl ether) so that aliphatic ethers may be used as solvents in the salt forming reaction or as antisolvents for the isolation. Furthermore, alcohols as solvents are preferably avoided, as they may be esterified in the presence of the sulfonic acid to yield corresponding esters as byproducts. Thus alcoholic solvents and other non-inert solvents (e.g. solvents that will react under the salt forming conditions) are generally avoided.

A short description of data set [5]: Hygroscopicity of solid state salts under storage at ambient and humid conditions. It counts as physicochemical. The settings on record: for hygroscopicity: storage at ambient and humid (40 C, 75% RH) conditions.
Method: Hygroscopicity of solid state pregabalin salts that passed the salt formation criterion were tested under storage at ambient and humid (40 C, 75% RH) conditions.
The conditions of data set [6]: per WO 96/40617; cited from earlier work.

Counter-ions that a name gives are not always drawn.

For maleate, the “stability / impurities during salt formation” value in data set [1] is “formed with by-products”.

For the compound pregabalin mesylate, the “stability / impurities during salt formation” value in data set [1] is given as “stable”.

Take fumarate: the “stability / impurities during salt formation” value in data set [1] is “formed with by-products”.

“Pregabalin p-toluene Sulfonate [pregabalin tosylate]”: in data set [1], the “stability in solid state and in solution (overall statement)” value was “stable in both the solid state and in solution”; the “stability / impurities during salt formation” value was “stable”. The “thermal stability (thermogravimetry), stable up to” value in data set [2] was 160-170 °C.

In the case of `CC(C)C[C@H](CN)CC(=O)O` [Pregabalin, S-(+)-4-amino-3-(2-methylpropyl)butanoic acid], in data set [3] (first of the two printed pKa values), the “pKa (acidic carboxy group)” value is 4.2. For the same compound, the “pKa (basic amino group)” value in data set [3] (second of the two printed pKa values) was 10.6. The solubility in ethanol entry in data set [4] is “poorly soluble”.

As for “Pregabalin Benzene Sulfonate [pregabalin besylate]”, in data set [1], the “stability in solid state and in solution (overall statement)” value was “stable in both the solid state and in solution”; the “stability / impurities during salt formation” value is “stable”. Also, the hygroscopicity result in data set [5] was “non-hygroscopic”. The “thermal stability (thermogravimetry), stable up to” value in data set [2] is 160-170 °C.

`CC(C)C[C@H](CN)CC(=O)O` [pregabalin hydrochloride]: the hygroscopicity entry in data set [5] is “liquefied”.

As for `CC(C)C[C@H](CN)CC(=O)O.O=S(=O)(O)c1cccc2c(S(=O)(=O)O)cccc12` [napadisylate, pregabalin 1,5-naphthalene disulfonate], in data set [1] (40 C and 75% RH, open dish), the “solid state stability during prolonged storage” value was “unstable”. The “stability / impurities during salt formation” value in data set [1] is “stable”.

Consider `CC(C)C[C@H](CN)CC(=O)O.O=S(=O)(O)CCS(=O)(=O)O` [ethane-1,2-disulfonic acid salt], for which the hygroscopicity entry in data set [5] is on record as “very hygroscopic”. In addition, the “water uptake on storage in air” value in data set [5] (storage in air (R.T.) for 36 days) was “formation of a dihydrate”.

For `CC(C)C[C@H](CN)CC(=O)O.O=C(O)[C@@H](O)c1ccccc1` [pregabalin mandelate, Pregabalin (S)-mandelate], the “stability in aqueous solutions” value in data set [1] (aqueous solution, lactam impurity) is on record as “unstable”. Further, in data set [6], the “hydrolysis in water to free pregabalin” value is given as “easily hydrolyzes in water”.
